{"source": "patent US9511010B2", "about": "“Compounds useful in the treatment and/or care of the skin, hair and/or mucous membranes and their cosmetic or pharmaceutical compositions” (Lubrizol Advanced Materials, Inc., priority 2012, dated 2016)", "system": "Fibroblasts from a sample of human skin", "assay": "Alkaline comet assay, protection against genotoxicity induced by photo-activated benzo[a]pyrene (BaP)", "format": "cell-based", "conditions": "0.01 mg/mL", "description": "Fibroblasts from a sample of human skin were isolated and incubated with 0.01 mg/mL of Ac-L-Tyr-L-Glu-L-Lys-L-Leu-L-Gln-L-Val-NH2 (Ac-SEQ ID NO:22-NH2) or carrier (control) with and without the presence of 40 μM BaP for 2 hours at 37° C. Once this contact time was over the cells were irradiated with 90 KJ/m^2 UVA/visible light (320-800 nm) for a maximum of 2 min at 4° C. to induce photo activation of BaP which damages the DNA. This damage was analyzed by the alkaline comet assay, detecting the DNA breakages. The protective effectiveness of the damage to the DNA of the different treatments was determined by analyzing the images using the software Fenestra Komet 5.5, expressing the damage to the DNA as the Olive Tail Moment (OTM; arbitrary units) and the χ^2 OTM function was determined, related to the quantity of damaged DNA, with the software TableCurve 2D.\nAs a negative control all the non-irradiated treatments were included (control, 40 μM BaP, 0.01 mg/mL of Ac-SEQ ID NO:22-NH2 and 0.01 mg/mL of (Ac-SEQ ID NO:22-NH2)+40 μM BaP). In table 14 the protective effectiveness results of Ac-SEQ ID NO:22-NH2 in human fibroblasts are shown.\nThe protection percentage conferred by the compound Ac-SEQ ID NO:22-NH2 against DNA damage induced by BaP was shown as the relationship of the value of χ^2 OTM for treatment with the compound Ac-SEQ ID NO:22-NH2 in the presence of photo-activated BaP with regard to the value of χ^2 OTM of the treatment with photo-activated BaP according to the formula resulting in a protection percentage conferred by the compound Ac-SEQ ID NO:22-NH2 against damage to DNA induced by BaP of 84.3%."}
{"substance": "Ac-YEKLQV-NH2 [Ac-SEQ ID NO: 22-NH2, Ac-L-Tyr-L-Glu-L-Lys-L-Leu-L-Gln-L-Val-NH2]", "values": [{"measurement": "χ^2 OTM", "setting": "40 μM BaP, irradiation with UVA/visible, BaP alone 11.38", "value": 3.52}, {"measurement": "χ^2 OTM", "setting": "40 μM BaP, no irradiation, BaP alone 2.07", "value": 2.18}, {"measurement": "χ^2 OTM", "setting": "no BaP, irradiation with UVA/visible, control 2.25", "value": 2.09}, {"measurement": "χ^2 OTM", "setting": "no BaP, no irradiation, control 2.08", "value": 2.26}, {"measurement": "protection percentage against damage to DNA induced by BaP", "setting": "photo-activated 40 μM BaP", "value": 84.3, "unit": "%"}]}
